# Test results published in patent publication US10563272B2, “Compositions comprising Metarhizium fungi and use thereof as a pesticide” (Cotton Research and Development Corporation, priority 2015, dated 2020).
# Assays:
# [1] = tested on: Creontiades dilutus (green mirids); experiment: Foliar spray trial on Bollgard II cotton, Norwood 2010-11 (Example 7): green mirids; format: in vivo; conditions: first spray, three DAT; BC 667/DAT 511 500 mL/ha, fipronil 62.5 mL/ha
# Procedure: (§1) The trial was conducted on commercial Bollgard II® cotton crops at Norwood near Moree, NSW from 5 Dec. 2010 to 19 Feb. 2011. The cotton was at the early squaring stage, when it was attractive to green mirids (Khan et al. 2004).
# (§2) The study evaluated the efficacy of the following treatments against green mirids, green vegetable bugs and predatory insects: • 1. 500 mL/ha BC 667 spore in oil (1×10^7 spores/ml); • 2. 500 mL/ha DAT 511 spore in oil (1×10^7 spores/ml); • 3. 62.5 mL/ha Fipronil (conventional insecticide); and • 4. Unsprayed (control).
# The treatment plots were arranged in a randomized complete block design with four replicates per treatment. Each replicated plot measured 0.5 ha. Foliar application of each treatment was made on 18 Jan. 2011 using a ground spray rig fitted with flat fan nozzles to achieve a droplet size of 80 250 μm. The treatment was applied in the mornings when temperature was between 20° C. and 28° C. […]
# Pre-treatment counts of green mirid adults and nymphs, predatory beetles, predatory bugs, predatory lacewings and spiders were made by visual inspection of whole cotton plants. Both adults and nymphs of the beneficial insects were counted. Plants were assessed in randomly selected one-metre lengths of row of each treatment replicate (i.e. four metres per treatment). […] Data are expressed as numbers of individuals of that species counted per metre for each treatment.
# [2] = tested on: predatory beetles; experiment: Foliar spray trial on Bollgard II cotton, Norwood 2010-11 (Example 7): predatory beetles; format: in vivo, Coleoptera (Coccinellidae, Melyridae); conditions: fipronil 62.5 mL/ha; for number of predatory beetles per meter: 1st spray, BC 667/DAT 511 0.50 L/ha; for number of predatory beetles per metre: 2nd spray, BC 667/DAT 511 0.5 L/ha
# Procedure: as §1, §2
# The treatment plots were arranged in a randomized complete block design with four replicates per treatment. Each replicated plot measured 0.5 ha. Foliar application of each treatment was made on 18 Jan. 2011 using a ground spray rig fitted with flat fan nozzles to achieve a droplet size of 80 250 μm. The treatment was applied in the mornings when temperature was between 20° C. and 28° C. The timing of treatment was based on an economic threshold of 0.5 green mirids per metre, the IPM guideline and recommendation by CottonLogic.
# Pre-treatment counts of green mirid adults and nymphs, predatory beetles, predatory bugs, predatory lacewings and spiders were made by visual inspection of whole cotton plants. Both adults and nymphs of the beneficial insects were counted. Plants were assessed in randomly selected one-metre lengths of row of each treatment replicate (i.e. four metres per treatment). In all, two spray applications of each treatment were made. The first spray was made on 18 Jan. 2011. Post-treatment counts of the first spray application were taken 3, 7 and 14 days after treatment (DAT) (first spray). A second spray application was done on 1 Feb. 2011 when green mirid adults plus nymphs reached the threshold of 0.5 per metre. Post-treatment counts of the second spray application were taken 3, 7, 14, 21 and 28 DAT. Data are expressed as numbers of individuals of that species counted per metre for each treatment.
# [3] = tested on: lacewings; experiment: Rate trial on conventional cotton, Norwood 2012 (Example 10): lacewings; format: in vivo, Chrysopa spp., Micromus tasmaniae; conditions: P>0.05
# Procedure: This trial was conducted on commercial conventional cotton crops on a farm at Norwood (29° 28'S, 149° 50′E) near Moree, NSW, from 28 Feb. to 21 Mar. 2012. The cotton used for the trial was at the early squaring stage, when it was attractive to green mirids (Khan et al. 2004).
# (§3) The efficacy of the following treatments against green mirids and predatory insects were evaluated: • 1. 250 mL/ha DAT 511 spore in oil (1×10^7 spores/ml); • 2. 500 mL/ha DAT 511 spore in oil (1×10^7 spores/ml); • 3. 1 L/ha DAT 511 spore in oil (1×10^7 spores/ml); • 4. 62.5 mL/ha of Fipronil; and • 5. Unsprayed (negative control).
# (§4) The treatment plots were arranged in a randomized complete block design with six replicates per treatment. Each replicated plot measured 40 m wide (40 rows) and 90 m long.
# Foliar application of each treatment was made on 28 Feb. (for both green mirids and beneficial insects) and 13 Mar. […]
# Pre-treatment counts of adult and nymph green mirids, predatory beetles, predatory bugs, predatory lacewings and spiders were made by visual inspection of whole cotton plants. Both adults and nymphs of beneficial insects were counted. Plants were assessed in randomly selected one-metre lengths of row of each treatment replicate (i.e. 6 m per treatment). […] Data are expressed as numbers of green mirid adults and nymphs counted per metre per treatment.
# [4] = tested on: spiders; experiment: Bollgard II cotton, Auscott-Togo 2012-13, Field 63 (Experiment 2): spiders; format: in vivo, Lycosa spp., Oxyopes spp., Salticidae spp., Araneus spp.; conditions: 62.5 mL/ha
# Procedure: Two separate trials (Experiment 1 in Field 77; Experiment 2 in Field 63) were conducted in Bollgard II cotton crops on a commercial cotton farm at Auscott-Togo near Narrabri, New South Wales from 11 Feb. to 5 Mar. 2013 (Field 77) and 19 Feb. to 6 Mar. 2013 (Field 63). The cotton used for each of the trials was at the late squaring to pod setting and maturation stages which was fairly attractive to green mirids.
# as §3, with “In both trials, the” for “The”, “was” for “were”, “fipronil;” for “Fipronil;”
# as §4
# Foliar application of each treatment was made on 28 Feb. (for both green mirids and beneficial insects) and 13 Mar. 2012 (for beneficial insects alone) using a ground spray rig fitted with flat fan nozzles to achieve a droplet size of 200 μm. The treatment was applied during the mornings when temperatures were between 20° C. and 28° C. The timing of treatment was based on the IPM Guidelines and recommendations by CottonLogic to use an economic threshold of 0.5 green mirids per metre (Deutscher and Wilson 1999; Khan et al. 2004).
# Pre-treatment counts of green mirid adults and nymphs, predatory beetles, predatory bugs, predatory lacewings and spiders were made by visual inspection of whole cotton plants. Both adults and nymphs of beneficial insects were counted. Plants were assessed in randomly selected one-metre lengths of row of each replicate (i.e. 6 m per treatment). Post-treatment counts were made 3, 7, 14 and 21 days after treatment. Data are expressed as numbers of green mirid adults and nymphs counted per metre for each treatment.
smiles,measurement,setting,value
N#Cc1nn(-c2c(Cl)cc(C(F)(F)F)cc2Cl)c(N)c1[S+]([O-])C(F)(F)F (centres unmarked) [fipronil],green mirid mortality,[1],100%
same,number of predatory beetles per meter,[2]; 3 DAT,0.00 ± 0.00 a per meter
same,number of predatory beetles per meter,[2]; 7 DAT,0.00 ± 0.00 a per meter
same,number of predatory beetles per meter,[2]; 14 DAT,0.00 ± 0.00 a per meter
same,number of predatory beetles per meter,[2]; pre-spray counts 18 Jan. 2011,0.67 ± 0.33 a per meter
same,number of predatory beetles per metre,[2]; 3 DAT,0.33 ± 0.33a per metre
same,number of predatory beetles per metre,[2]; 7 DAT,0.33 ± 0.33a per metre
same,number of predatory beetles per metre,[2]; 14 DAT,0.00 ± 0.00a per metre
same,number of predatory beetles per metre,[2]; 21 DAT,1.00 ± 0.58a per metre
same,number of predatory beetles per metre,[2]; 28 DAT,0.67 ± 0.33a per metre
same,number of predatory beetles per metre,[2]; pre-spray counts 1 Feb. 2011,0.00 ± 0.00a per metre
same,number of lacewings versus unsprayed (control) plots,[3],No significant difference
same,No. spiders per meter,[4]; 3 DAT,7.33 ± 1.45 a per meter
same,No. spiders per meter,[4]; 7 DAT,4.33 ± 0.67a per meter
same,No. spiders per meter,[4]; 14 DAT,1.33 ± 0.33a per meter
same,No. spiders per meter,[4]; 21 DAT,3.67 ± 0.33 a per meter
same,No. spiders per meter,[4]; pre-spray counts,11.67 ± 1.61 a per meter
